Measurements from patent US20210255193A1, “LYSINE REACTIVE PROBES AND USES THEREOF” (The Scripps Research Institute, priority 2017, published 2021).
Blank lines part the entries; values can stand above or below the molecule they belong to.

What was measured:
Test in all cases: competitive isoTOP-ABPP
Format in all cases: binding
[1] = target: T1, SLC25A5 ADP/ATP translocase 2 (Homo sapiens, UniProt P05141); conditions: for isoTOP-ABPP ratio (R) at liganded lysine P05141_K23: sol, 231
T1 construct: isoTOP-ABPP experiments performed in cell lysates (in vitro); endogenous in cells; host or cells: MDA-MB-231 soluble lysate
T1 sequence (P05141 1-298): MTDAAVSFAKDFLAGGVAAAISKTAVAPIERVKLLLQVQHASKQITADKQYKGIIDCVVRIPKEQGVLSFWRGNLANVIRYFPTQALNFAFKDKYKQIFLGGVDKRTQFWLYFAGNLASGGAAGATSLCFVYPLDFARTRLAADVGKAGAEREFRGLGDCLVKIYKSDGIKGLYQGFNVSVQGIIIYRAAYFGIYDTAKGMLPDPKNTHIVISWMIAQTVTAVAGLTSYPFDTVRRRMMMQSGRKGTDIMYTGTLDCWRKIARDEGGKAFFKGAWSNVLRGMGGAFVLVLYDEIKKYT
How it was run: (§1)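 Lysine engagement is reported as R, the MS1 peak-area ratio of heavy-tagged DMSO to light-tagged compound samples. Final fragment concentrations were 50 μM for activated esters and 100 μM for guanidinylating agents; STP-alkyne probe 0.1 mM, 1 h.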

[2] = target: T2, DNMT1 DNA (cytosine-5)-methyltransferase 1 (Homo sapiens, UniProt P26358)
T2 construct: isoTOP-ABPP experiments performed in cell lysates (in vitro); endogenous in cells; host or cells: soluble proteome of human cancer cell lines (MDA-MB-231; Ramos and Jurkat also prepared)
How it was run: as §1

[3] = target: T3, ETFA Electron transfer flavoprotein subunit alpha, mitochondrial (Homo sapiens, UniProt P13804); conditions: for isoTOP-ABPP reactivity ratio at lysine P13804_K139: 231 sol
T3 construct: isoTOP-ABPP experiments performed in cell lysates (in vitro); endogenous in cells; host or cells: soluble proteome of human cancer cell lines (MDA-MB-231; Ramos and Jurkat also prepared)
T3 sequence (P13804 20-333): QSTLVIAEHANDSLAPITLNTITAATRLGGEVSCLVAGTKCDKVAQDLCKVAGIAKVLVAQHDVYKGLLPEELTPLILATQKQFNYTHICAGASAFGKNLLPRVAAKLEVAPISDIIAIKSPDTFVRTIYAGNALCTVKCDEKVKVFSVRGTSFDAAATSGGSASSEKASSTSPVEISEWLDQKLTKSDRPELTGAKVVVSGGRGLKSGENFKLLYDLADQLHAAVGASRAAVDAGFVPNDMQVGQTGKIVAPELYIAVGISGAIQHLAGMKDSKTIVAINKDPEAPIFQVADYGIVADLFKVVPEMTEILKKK
T3 sequence (P38117 2-255 partner limits assumed): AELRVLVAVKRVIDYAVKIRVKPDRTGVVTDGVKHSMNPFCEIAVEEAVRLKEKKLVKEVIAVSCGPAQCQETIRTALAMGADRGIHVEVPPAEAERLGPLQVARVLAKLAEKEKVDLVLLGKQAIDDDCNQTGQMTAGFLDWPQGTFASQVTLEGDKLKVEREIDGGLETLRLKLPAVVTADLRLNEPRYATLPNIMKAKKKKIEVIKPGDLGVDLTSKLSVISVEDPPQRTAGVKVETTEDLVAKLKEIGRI
How it was run: as §1

T2 sequence (P26358 whole entry): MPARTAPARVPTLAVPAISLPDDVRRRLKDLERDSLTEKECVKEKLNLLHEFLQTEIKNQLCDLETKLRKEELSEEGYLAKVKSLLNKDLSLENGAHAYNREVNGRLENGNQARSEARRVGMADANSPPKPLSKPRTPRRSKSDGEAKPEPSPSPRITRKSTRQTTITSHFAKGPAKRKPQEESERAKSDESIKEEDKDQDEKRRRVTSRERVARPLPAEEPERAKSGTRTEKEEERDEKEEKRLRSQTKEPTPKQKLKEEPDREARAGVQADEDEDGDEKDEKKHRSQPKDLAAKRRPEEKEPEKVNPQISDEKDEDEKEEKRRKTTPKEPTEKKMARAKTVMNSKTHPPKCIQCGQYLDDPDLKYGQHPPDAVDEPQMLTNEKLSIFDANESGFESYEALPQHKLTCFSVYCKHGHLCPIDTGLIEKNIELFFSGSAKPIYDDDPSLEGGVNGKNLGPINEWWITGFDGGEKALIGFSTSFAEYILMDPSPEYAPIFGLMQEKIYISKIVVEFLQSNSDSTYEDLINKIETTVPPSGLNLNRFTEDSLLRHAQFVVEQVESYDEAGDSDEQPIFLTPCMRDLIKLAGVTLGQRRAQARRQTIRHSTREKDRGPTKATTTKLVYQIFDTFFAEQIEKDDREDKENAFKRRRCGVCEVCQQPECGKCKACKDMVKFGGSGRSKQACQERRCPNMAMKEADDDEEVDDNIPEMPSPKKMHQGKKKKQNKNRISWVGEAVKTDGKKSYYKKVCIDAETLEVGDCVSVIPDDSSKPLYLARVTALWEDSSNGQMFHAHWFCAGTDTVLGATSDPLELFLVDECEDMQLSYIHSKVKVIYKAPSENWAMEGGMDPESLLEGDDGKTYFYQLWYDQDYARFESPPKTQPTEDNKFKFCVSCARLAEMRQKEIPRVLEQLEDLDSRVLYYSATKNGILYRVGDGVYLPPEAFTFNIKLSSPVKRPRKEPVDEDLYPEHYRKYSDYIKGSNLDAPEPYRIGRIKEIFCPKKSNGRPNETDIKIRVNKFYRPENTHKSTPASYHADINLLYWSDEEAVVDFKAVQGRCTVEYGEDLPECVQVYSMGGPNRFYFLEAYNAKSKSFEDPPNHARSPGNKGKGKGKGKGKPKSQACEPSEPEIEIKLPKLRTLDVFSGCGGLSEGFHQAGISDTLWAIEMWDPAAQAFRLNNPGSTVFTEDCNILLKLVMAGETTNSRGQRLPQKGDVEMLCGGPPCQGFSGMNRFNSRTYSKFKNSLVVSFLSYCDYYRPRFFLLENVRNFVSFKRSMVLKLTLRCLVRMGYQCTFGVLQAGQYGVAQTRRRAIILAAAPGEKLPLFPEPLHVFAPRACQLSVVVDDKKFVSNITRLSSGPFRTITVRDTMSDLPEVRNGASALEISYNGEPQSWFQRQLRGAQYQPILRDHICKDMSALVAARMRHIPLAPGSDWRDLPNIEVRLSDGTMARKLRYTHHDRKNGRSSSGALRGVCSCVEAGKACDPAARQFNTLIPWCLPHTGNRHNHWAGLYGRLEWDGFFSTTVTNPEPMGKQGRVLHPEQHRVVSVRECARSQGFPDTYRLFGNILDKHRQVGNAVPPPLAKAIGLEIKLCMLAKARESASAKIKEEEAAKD

isoTOP-ABPP ratio, lysine P13804_K139 ([3]; 50 uM_231_sol_in vitro): 1.0
SMILES: NC(=O)c1cc(C(F)(F)F)cc(C(F)(F)F)c1 [fragment 51, reference compound]

isoTOP-ABPP ratio, lysine P05141_K23 ([1]; 100 uM_231_sol_in vitro): 12.6
isoTOP-ABPP ratio, lysine P13804_K139 ([3]; 100 uM_231_sol_in vitro): 1.1
SMILES: CC(C)(C)OC(=O)N=C(NC(=O)OC(C)(C)C)n1cccn1 [fragment 50, reference compound]

isoTOP-ABPP ratio, lysine P05141_K23 ([1]; 50 uM_231_sol_in vitro): 1.8
isoTOP-ABPP ratio, lysine P13804_K139 ([3]; 50 uM_231_sol_in vitro): 1.1
SMILES: O=C(Oc1c(F)c(F)c(C(F)(F)F)c(F)c1F)c1cc(C(F)(F)F)cc(C(F)(F)F)c1 [fragment 47, 2,3,5,6-Tetrafluoro-4-(trifluoromethyl)phenyl 3,5-bis(trifluoromethyl)benzoate]

isoTOP-ABPP ratio, lysine P26358_K45 ([2]; 100 uM_231_sol_in vitro): 1.3
SMILES: COC(=O)NC(=NC(=O)OCC1c2ccccc2-c2ccccc21)n1cccn1 [fragment 49, N-Methoxycarbonyl-N′-9-fluorenylmethoxycarbonyl-pyrazole-1-carboxamidine]

isoTOP-ABPP reactivity ratio at lysine P05141_K23 ([1]; 50 uM, 231 sol, in vitro): 1.0
SMILES: CCn1cc(C(=O)Oc2c(F)c(F)c(F)c(F)c2F)c(=O)c2ccc(C)nc21 [fragment 28, Pentafluorophenyl 1-ethyl-7-methyl-4-oxo-1,4-dihydro-1,8-naphthyridine-3-carboxylate]

isoTOP-ABPP ratio, lysine P26358_K45 ([2]; 50 uM_231_sol_in vitro): 1.1
isoTOP-ABPP ratio, lysine P05141_K23 ([1]; 50 uM_231_sol_in vitro): 1.2
isoTOP-ABPP ratio, lysine P13804_K139 ([3]; 50 uM_231_sol_in vitro): 0.9
SMILES: O=C(Oc1c(F)c(F)cc(F)c1F)c1cc(C(F)(F)F)cc(C(F)(F)F)c1 [fragment 48, 2,3,5,6-Tetrafluorophenyl 3,5-bis(trifluoromethyl)benzoate]

The next lines start with the molecule.

SMILES: O=C(Oc1ccc([N+](=O)[O-])cc1[N+](=O)[O-])C(c1ccccc1)(c1ccccc1)c1ccccc1 [fragment 42, 2,4-Dinitrophenyl 2,2,2-triphenylacetate]
isoTOP-ABPP ratio (R) at liganded lysine P05141_K23 ([1]; 50 uM, in vitro): 1.1

SMILES: O=C(Oc1c(F)c(F)c(F)c(F)c1F)c1cc(C(F)(F)F)cc(C(F)(F)F)c1 [fragment 21, Pentafluorophenyl 3,5-bis(trifluoromethyl)benzoate]
R value (DMSO/fragment) for probe 1 labeling ([2]; P26358_K45, 50 uM, 231 sol, in vitro): 1.4
R value (DMSO/fragment) for probe 1 labeling ([1]; P05141_K23, 50 uM, 231 sol, in vitro): 1.7

SMILES: Cn1cc(CC(=O)Oc2ccc([N+](=O)[O-])cc2[N+](=O)[O-])c2ccccc21 [fragment 32, 2,4-Dinitrophenyl 2-(1-methyl-1H-indol-3-yl)acetate]
isoTOP-ABPP reactivity ratio at lysine P26358_K45 ([2]; 50 uM, 231 sol, in vitro): 1.0
isoTOP-ABPP reactivity ratio at lysine P05141_K23 ([1]; 50 uM, 231 sol, in vitro): 1.8
isoTOP-ABPP reactivity ratio at lysine P13804_K139 ([3]; 50 uM, in vitro): 20.0

SMILES: O=C(CCc1cn(-c2ccccc2)nc1-c1ccccc1)Oc1ccc([N+](=O)[O-])cc1[N+](=O)[O-] [fragment 29, 2,4-Dinitrophenyl 3-(1,3-diphenyl-1H-pyrazol-4-yl)propanoate]
isoTOP-ABPP reactivity ratio at lysine P26358_K45 ([2]; 50 uM, 231 sol, in vitro): 0.9
isoTOP-ABPP reactivity ratio at lysine P05141_K23 ([1]; 50 uM, 231 sol, in vitro): 1.5
isoTOP-ABPP reactivity ratio at lysine P13804_K139 ([3]; 50 uM, in vitro): 0.8

SMILES: O=C(Oc1c(F)c(F)c(F)c(F)c1F)C1CCN(C(=O)OCc2ccccc2)CC1 [fragment 24, 1-Benzyl 4-(pentafluorophenyl) piperidine-1,4-dicarboxylate]
isoTOP-ABPP reactivity ratio at lysine P13804_K139 ([3]; 50 uM, in vitro): 1.1

SMILES: N#Cc1ccc(C(=O)Oc2ccc([N+](=O)[O-])cc2[N+](=O)[O-])cc1 [fragment 44, 2,4-Dinitrophenyl 4-cyanobenzoate]
isoTOP-ABPP ratio, lysine P26358_K45 ([2]; 50 uM_231_sol_in vitro): 0.7
isoTOP-ABPP ratio, lysine P05141_K23 ([1]; 50 uM_231_sol_in vitro): 1.1
isoTOP-ABPP ratio, lysine P13804_K139 ([3]; 50 uM_231_sol_in vitro): 0.9

SMILES: O=C(Oc1ccc([N+](=O)[O-])cc1[N+](=O)[O-])C1CCN(C(=O)OCc2ccccc2)CC1 [fragment 34, 1-Benzyl 4-(2,4-dinitrophenyl) piperidine-1,4-dicarboxylate]
isoTOP-ABPP ratio (R) at liganded lysine P05141_K23 ([1]; 50 uM, in vitro): 1.1

SMILES: O=C(CC12CC3CC(CC(C3)C1)C2)Oc1ccc([N+](=O)[O-])cc1[N+](=O)[O-] [fragment 38, 2,4-Dinitrophenyl 2-(adamantan-1-yl)acetate]
isoTOP-ABPP ratio (R) at liganded lysine P05141_K23 ([1]; 50 uM, in vitro): 1.1

SMILES: O=C(CCc1coc2cc(F)ccc2c1=O)Oc1ccc([N+](=O)[O-])cc1[N+](=O)[O-] [fragment 36, 2,4-Dinitrophenyl 3-(7-fluoro-4-oxo-4H-chromen-3-yl)propanoate]
isoTOP-ABPP ratio (R) at liganded lysine P26358_K45 ([2]; 50 uM, in vitro, sol, 231): 0.8
isoTOP-ABPP ratio (R) at liganded lysine P05141_K23 ([1]; 50 uM, in vitro): 1.1
isoTOP-ABPP ratio (R) at liganded lysine P13804_K139 ([3]; 50 uM, in vitro, sol, 231): 0.7
